# Laboratory results published in patent US20240382475A1, “Quinazoline Derivative, Or Preparation Method Therefor And Use Thereof” (Zhejiang Hisun Pharmaceutical Co., Ltd., priority 2021, published 2024).
# Experiments:
# [1] = Pharmacokinetic evaluation in ICR mice; type: in vivo; conditions: male, mouse, plasma, PO 10 mg/kg; for AUC(0-t): read-out: Area under curve AUC0-t; for half-life: read-out: Half-life T1/2 (converted); for Cmax: read-out: Plasma concentration Cmax
# Text: (§1) ICR normal mice were used as test animals, and LC/MS/MS was used to determine the drug concentrations at different moments in plasma of ICR mice by intragastric administration. The pharmacokinetic behavior of the compounds of the present invention in ICR mice was studied to evaluate the pharmacokinetic characteristics of the above compounds.
# Compound 4, Compound 26 and Compound 32.
# ICR mice, male, 27.8-38 g, were purchased from Zhejiang Vital River Laboratory Animal Technology Co., Ltd.
# An appropriate amount of the compound was weighed, and DMA:30% Solutol HS-15:Saline=5:5:90 (v/v/v) was used as the solvent to prepare a fully dissolved solution, and then administered to obtain a 1 mg/mL colorless solution.
# The ICR mice in the intragastric group of each compound to be tested (nine mice in each group) were fasted overnight followed by intragastric administration (administration dosage was 10 mg/kg and the administration volume was 10 mL/kg), and ate 4 hours after administration.
# 0.1 mL of blood was collected via orbit before administration and 0.25 hour, 0.5 hour, 1 hour, 2 hours, 4 hours, 8 hours, 12 hours, and 24 hours after administration, and placed in EDTA-K2 anticoagulant tubes. The collected blood samples were placed on ice, and plasma was separated by centrifugation (centrifugation condition: 1500 g, 10 minutes). The collected plasma samples were stored at −40˜−20° C. before analysis.
# (§2) LC-MS/MS was used to determine the content of the compound to be tested in mouse plasma after intragastric administration.
# [2] = tested on: OCI-AML5 cells; assay: Inhibition of OCI-AML5 cell proliferation (CellTiter-Glo); type: cell-based; conditions: Homo sapiens, OCI-AML-5; OCI-AML5 cells (SOS1 N233Y mutation), 120 hours
# Method: The following method was used to determine the influence of the compounds of the present invention on OCI-AML5 cells proliferation. OCI-AML5 cells (containing SOS1 N233Y mutation) were purchased from Nanjing Kebai Biotechnology Co., Ltd. and cultured in MEMα medium containing 10% fetal bovine serum, 100 U penicillin, and 100 μg/mL streptomycin. The activities of the cells were determined by CellTiter-Glo® Luminescent Cell Viability Assay Kit (Promega, Art. No. G7573).
# The experimental method was operated according to the steps in the kit instruction, which were briefly described as follows: the test compounds were first dissolved in DMSO to prepare storage solutions of 10 mM, and then diluted with culture mediums to prepare test samples. The final concentrations of the compounds were 10000 nM to 0.15 nM. Cells in logarithmic phase were inoculated in a 96-well cell culture plate with 1,000 cells per well, after cultured overnight in 5% CO2 incubator at 37° C., the test compounds were added to the incubator to continue the culture for 120 hours. After the culture was completed, 50 μL of CellTiter-Glo detection solution was added to each well, shaken for 5 minutes and then stood for 10 minutes. Then, a Luminescence mode was used to read the luminescence values of each well of the samples on a microplate reader.
# [3] = Pharmacokinetic evaluation in Balb/c mice; type: in vivo; conditions: male, mouse, plasma, PO 10 mg/kg; for AUC(0-t): read-out: Area under curve AUC0-t; for half-life: read-out: Half-life T1/2 (converted); for Cmax: read-out: Plasma concentration Cmax
# Text: as §1, with “Balb/c normal” for “ICR normal”, “of balb/c” for “of ICR”, “in Balb/c” for “in ICR”
# Compound 27 and Compound 30.
# Nine Balb/c normal mice, male, were evenly divided into 3 groups, with 3 mice in each group, purchased from Zhejiang Vital River Laboratory Animal Technology Co., Ltd.
# An appropriate amount of the compound was weighed, and DMA:30% Solutol HS-15:Saline=5:5:90 (v/v/v) was used as the solvent to prepare a fully dissolved solution with a concentration of 1 mg/mL.
# The mice in the intragastric group of each compound to be tested (nine mice in each group) were fasted overnight followed by intragastric administration (administration dosage was 10 mg/kg and the administration volume was 10 mL/kg), and ate 4 hours after administration.
# 0.1 mL of blood was collected via jugular vein before administration and 0.25 hour, 0.5 hour, 1 hour, 2 hours, 4 hours, 6 hours, 8 hours, and 24 hours after administration, and placed in 0.1% sodium heparin anticoagulant test tubes. The collected blood samples were placed on ice, and plasma was separated by centrifugation (centrifugation condition: 7000 g, 5 minutes). The collected plasma samples were stored at −80° C. before analysis.
# as §2
# [4] = tested on: p-ERK1/2 in DLD-1 cells; assay: Inhibition of p-ERK1/2 in DLD-1 cells (Cisbio Advanced phospho-ERK1/2 kit); type: cell-based; conditions: Homo sapiens; DLD-1 cells (KRAS G13D mutation), hEGF 5 nM stimulation; read-out: IC50 (nM) Inhibition on p-ERK½ in DLD-1 cells
# Text: The following method was used to determine the inhibition activities of the compounds of the present invention on p-ERK1/2 in DLD-1 cells. The Advanced phospho-ERK1/2 (Thr202/tyr2O4) kit (Art. No. 64AERPEH) from Cisbio was used in this method. Please refer to the kit instruction for detailed experimental operations. DLD-1 cells (containing KRAS G13D mutation) were purchased from the Cell Resource Center of Shanghai Institutes for Biological Sciences, Chinese Academy of Sciences.
# The experimental process can be briefly described as follows: DLD-1 cells were cultured in RPMI 1640 complete medium containing 10% fetal bovine serum, 100 U penicillin, 100 μg/mL streptomycin and 1 mM Sodium Pyruvate. DLD-1 cells were plated in a 96-well plate at 30,000 cells per well, after cultured overnight in 5% CO2 incubator at 37° C. with complete culture medium. The test compounds were dissolved in DMSO to prepare storage solutions of 10 mM, and then diluted with RPMI 1640 basic mediums. 90 μL of RPMI 1640 basic mediums containing the test compounds at the corresponding concentration were added to each well. The final concentrations of the test compounds in the reaction system were 10,000 nM to 0.15 nM, and were placed in a cell culture incubator for 3 hours and 40 minutes. Subsequently, 10 μL of hEGF (purchased from Roche, Art. No. 11376454001) prepared with RPMI 1640 basic medium was added to a final concentration of 5 nM, and placed in the incubator for culturing for 20 minutes. The cell supernatant was discarded, and the cells were washed with PBS on ice-bath. Then, 45 μl of 1× cell phospho/total protein lysis buffer (component of Advanced phospho-ERK1/2 kit) was added to each well for lysis. The 96-well plate was placed on ice for 0.5 hours to lyse, and then the lysate was detected according to the instruction of the Advanced phospho-ERK1/2 (Thr202/tyr2O4) kit. Finally, the microplate reader was used in […] mode to measure the fluorescence intensity of each well emitting wavelengths of 620 nm and […] under the excitation wavelength of 304 nm, and the fluorescence intensity ratio 665/620 in each well was calculated. By comparing with the fluorescence intensity ratio of a control group (0.1% DMSO), the percentage inhibition rates of the test compounds at each concentration were calculated, and the IC50 values of the compounds were obtained by performing nonlinear regression analysis with logarithmic values of the compound concentration-inhibition rate by GraphPad Prism 5 software, which can be seen in Table 3.
AUC(0-t) [3] [µg·h/mL],half-life [3] [h],Cmax [3] [µg/mL],IC50 [4] [nM],Structure (SMILES),AUC(0-t) [1] [µg·h/mL],half-life [1] [h],Cmax [1] [µg/mL],IC50 [2] [nM]
,,,,"CC(=O)c1cc2nc(C)nc(N[C@H](C)c3cccc(C#N)c3C)c2cc1N1CCC2(CC1)COC2 [Compound 26, (R)-3-(1-((7-acetyl-2-methyl-6-(2-oxa-7-azaspiro[3.5]nonan-7-yl)quinazolin-4-yl)amino)ethyl)-2-methylbenzonitrile]",7.7,1.98,2.83,17.4
4.66,4.91,1.15,31.2,"COc1cc2nc(C)nc(N[C@H](C)c3cccc(C#N)c3C)c2cc1N1CCC(N2CCN(C(C)=O)CC2)CC1 [Compound 27, (R)-3-(1-((6-(4-(4-acetylpiperazin-1-yl)piperidin-1-yl)-7-methoxy-2-methylquinazolin-4-yl)amino)ethyl)-2-methylbenzonitrile]",,,,
10.8,0.79,4.66,,"CCOC(=O)N1CCN(c2cc3c(N[C@H](C)c4cccc(C#N)c4C)nc(C)nc3cc2OC)CC1 [Compound 30, ethyl (R)-4-(4-((1-(3-cyano-2-methylphenyl)ethyl)amino)-7-methoxy-2-methylquinazolin-6-yl)piperazine-1-carboxylate]",,,,
,,,,"COc1cc2nc(C)nc(N[C@H](C)c3cccc(C#N)c3C)c2cc1C1(OC)CCN(C(C)=O)CC1 [Compound 32, (R)-3-(1-((6-(1-acetyl-4-methoxypiperidin-4-yl)-7-methoxy-2-methylquinazolin-4-yl)amino)ethyl)-2-methylbenzonitrile]",22.1,2.29,5.61,
